Source: PMC6409085, “Three odorant-binding proteins are involved in the behavioral response of Sogatella furcifera to rice plant volatiles” (PeerJ, 2019)
“And” between values parts separate entries of the source, which are not always exact repeats. Identical values can stand only once.

Tests used:
S. furcifera adults = experiment: Y-tube olfactometer behavioral trials; assay type: in vivo, Sogatella furcifera; details: odorant 50 µL/L vs hexane; adults
How it was run: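 Single S. furcifera adults (2 days post-emergence, starved 0.5 h) chose between odorant (100 µL of 50 µL/L on filter paper) and hexane control in a glass Y-tube, charcoal-filtered humidified air 300 mL/min per arm, 25 ± 1 °C, 50% RH. Choice scored if insect passed half an arm and stayed >1 min within 10 min; 45 insects per compound, chi-squared test.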

SfurOBP11 = SfurOBP11 (Sogatella furcifera, UniProt V5T6E3); experiment: biochemical; assay type: binding
Chain of SfurOBP11 (V5T6E3 entry or part of it): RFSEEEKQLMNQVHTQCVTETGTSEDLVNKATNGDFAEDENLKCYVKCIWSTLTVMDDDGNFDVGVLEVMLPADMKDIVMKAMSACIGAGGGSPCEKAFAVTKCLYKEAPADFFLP
How it was run: (§1)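 Fluorescence competitive binding used 2.0 µM SfurOBP and 2.0 µM 1-NPN reporter in 50 mM Tris-HCl, pH 7.4, with odorants at 2-20 µM. Fluorescence was read 2 min after adding the odorant (excitation 337 nm, emission 390-490 nm), in triplicate. Ki was calculated from IC50 as IC50/(1 + [1-NPN]/K1-NPN).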

SfurOBP2 = SfurOBP2 (Sogatella furcifera, UniProt V5T759); experiment: biochemical; assay type: binding
Chain of SfurOBP2 (V5T759 entry or part of it): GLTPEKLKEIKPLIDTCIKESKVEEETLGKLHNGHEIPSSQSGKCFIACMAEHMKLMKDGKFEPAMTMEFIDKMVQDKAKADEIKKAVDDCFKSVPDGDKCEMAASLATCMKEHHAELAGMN
How it was run: as §1

SfurOBP1 = SfurOBP1 (Sogatella furcifera, UniProt V5T8N5); experiment: biochemical; assay type: binding; details: for Fluorescence competitive binding assay, fluorescence intensity: OBP1, three replicate columns
Chain of SfurOBP1 (V5T8N5 entry or part of it): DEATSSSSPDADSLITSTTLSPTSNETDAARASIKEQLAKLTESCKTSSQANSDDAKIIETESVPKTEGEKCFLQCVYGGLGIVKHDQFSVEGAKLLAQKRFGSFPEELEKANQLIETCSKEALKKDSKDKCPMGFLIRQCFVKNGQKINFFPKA
How it was run: as §1

SfurOBP3 = SfurOBP3 (Sogatella furcifera, UniProt V5T818); experiment: biochemical; assay type: binding; details: for Fluorescence competitive binding assay, fluorescence intensity: OBP3, three replicate columns;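 as to Fluorescence competitive binding assay, fluorescence intensity: competitor odorant at 2 to 20 µM with protein and 1-NPN both 2.0 µM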
Chain of SfurOBP3 (V5T818 entry or part of it): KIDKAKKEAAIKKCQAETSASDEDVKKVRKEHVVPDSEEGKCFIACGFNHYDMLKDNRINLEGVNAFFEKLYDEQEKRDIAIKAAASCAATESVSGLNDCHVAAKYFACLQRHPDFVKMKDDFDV
How it was run: as §1
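For Fluorescence competitive binding assay, fluorescence intensity in this document: competitor odorant at 2 to 20 µM with protein and 1-NPN both 2.0 µM.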

COC(=O)c1ccccc1 [benzoic acid methylester]
number of insects choosing hexane arm (S. furcifera adults): 10
number of insects choosing volatilies arm (S. furcifera adults): 9
number of insects failed (no choice) (S. furcifera adults): 20
IC50 (SfurOBP11): > 20 µM
Fluorescence intensity, fluorescence competitive binding assay, OBP11 (SfurOBP11; ligand concentration 2, replicate 1): 27311
Fluorescence intensity, fluorescence competitive binding assay, OBP11 (SfurOBP11; ligand concentration 2, replicate 2): 29257
Fluorescence intensity, fluorescence competitive binding assay, OBP11 (SfurOBP11; ligand concentration 2, replicate 3): 28341
Fluorescence intensity, fluorescence competitive binding assay, OBP11 (SfurOBP11; ligand concentration 4, replicate 1): 28195
Fluorescence intensity, fluorescence competitive binding assay, OBP11 (SfurOBP11; ligand concentration 4, replicate 2): 27454
Fluorescence intensity, fluorescence competitive binding assay, OBP11 (SfurOBP11; ligand concentration 4, replicate 3): 28935
Fluorescence intensity, fluorescence competitive binding assay, OBP11 (SfurOBP11; ligand concentration 6, replicate 1): 25204
Fluorescence intensity, fluorescence competitive binding assay, OBP11 (SfurOBP11; ligand concentration 6, replicate 2): 26496
Fluorescence intensity, fluorescence competitive binding assay, OBP11 (SfurOBP11; ligand concentration 6, replicate 3): 27787
Fluorescence intensity, fluorescence competitive binding assay, OBP11 (SfurOBP11; ligand concentration 8, replicate 1): 24731
Fluorescence intensity, fluorescence competitive binding assay, OBP11 (SfurOBP11; ligand concentration 8, replicate 2): 24972
Fluorescence intensity, fluorescence competitive binding assay, OBP11 (SfurOBP11; ligand concentration 8, replicate 3): 24489
Fluorescence intensity, fluorescence competitive binding assay, OBP11 (SfurOBP11; ligand concentration 10, replicate 1): 24285
Fluorescence intensity, fluorescence competitive binding assay, OBP11 (SfurOBP11; ligand concentration 10, replicate 2): 24217
Fluorescence intensity, fluorescence competitive binding assay, OBP11 (SfurOBP11; ligand concentration 10, replicate 3): 24352
Fluorescence intensity, fluorescence competitive binding assay, OBP11 (SfurOBP11; ligand concentration 12, replicate 1): 23537
Fluorescence intensity, fluorescence competitive binding assay, OBP11 (SfurOBP11; ligand concentration 12, replicate 2): 23314
Fluorescence intensity, fluorescence competitive binding assay, OBP11 (SfurOBP11; ligand concentration 12, replicate 3): 23760
Fluorescence intensity, fluorescence competitive binding assay, OBP11 (SfurOBP11; ligand concentration 14, replicate 1): 19900
Fluorescence intensity, fluorescence competitive binding assay, OBP11 (SfurOBP11; ligand concentration 14, replicate 2): 22587
Fluorescence intensity, fluorescence competitive binding assay, OBP11 (SfurOBP11; ligand concentration 14, replicate 3): 21306
Fluorescence intensity, fluorescence competitive binding assay, OBP11 (SfurOBP11; ligand concentration 16, replicate 1): 18401
Fluorescence intensity, fluorescence competitive binding assay, OBP11 (SfurOBP11; ligand concentration 16, replicate 2): 18544
Fluorescence intensity, fluorescence competitive binding assay, OBP11 (SfurOBP11; ligand concentration 16, replicate 3): 17724
Fluorescence intensity, fluorescence competitive binding assay, OBP11 (SfurOBP11; ligand concentration 18, replicate 1): 22003
Fluorescence intensity, fluorescence competitive binding assay, OBP11 (SfurOBP11; ligand concentration 18, replicate 2): 20975
Fluorescence intensity, fluorescence competitive binding assay, OBP11 (SfurOBP11; ligand concentration 18, replicate 3): 22765
Fluorescence intensity, fluorescence competitive binding assay, OBP11 (SfurOBP11; ligand concentration 20, replicate 1): 21640
Fluorescence intensity, fluorescence competitive binding assay, OBP11 (SfurOBP11; ligand concentration 20, replicate 2): 22200
Fluorescence intensity, fluorescence competitive binding assay, OBP11 (SfurOBP11; ligand concentration 20, replicate 3): 21920
IC50 (SfurOBP2): > 20 µM
Fluorescence competitive binding assay, OBP2 (raw fluorescence reading) (SfurOBP2; ligand concentration 2 (unit not given), replicate column 1 of 3): 20302
Fluorescence competitive binding assay, OBP2 (raw fluorescence reading) (SfurOBP2; ligand concentration 2 (unit not given), replicate column 2 of 3): 19349
Fluorescence competitive binding assay, OBP2 (raw fluorescence reading) (SfurOBP2; ligand concentration 2 (unit not given), replicate column 3 of 3): 19856
Fluorescence competitive binding assay, OBP2 (raw fluorescence reading) (SfurOBP2; ligand concentration 4 (unit not given), replicate column 1 of 3): 20922
Fluorescence competitive binding assay, OBP2 (raw fluorescence reading) (SfurOBP2; ligand concentration 4 (unit not given), replicate column 2 of 3): 22649
Fluorescence competitive binding assay, OBP2 (raw fluorescence reading) (SfurOBP2; ligand concentration 4 (unit not given), replicate column 3 of 3): 23660
Fluorescence competitive binding assay, OBP2 (raw fluorescence reading) (SfurOBP2; ligand concentration 6 (unit not given), replicate column 1 of 3): 19982
Fluorescence competitive binding assay, OBP2 (raw fluorescence reading) (SfurOBP2; ligand concentration 6 (unit not given), replicate column 2 of 3): 19598
Fluorescence competitive binding assay, OBP2 (raw fluorescence reading) (SfurOBP2; ligand concentration 6 (unit not given), replicate column 3 of 3): 20363
Fluorescence competitive binding assay, OBP2 (raw fluorescence reading) (SfurOBP2; ligand concentration 8 (unit not given), replicate column 1 of 3): 18016
Fluorescence competitive binding assay, OBP2 (raw fluorescence reading) (SfurOBP2; ligand concentration 8 (unit not given), replicate column 2 of 3): 17876
Fluorescence competitive binding assay, OBP2 (raw fluorescence reading) (SfurOBP2; ligand concentration 8 (unit not given), replicate column 3 of 3): 18155
Fluorescence competitive binding assay, OBP2 (raw fluorescence reading) (SfurOBP2; ligand concentration 10 (unit not given), replicate column 1 of 3): 17866
Fluorescence competitive binding assay, OBP2 (raw fluorescence reading) (SfurOBP2; ligand concentration 10 (unit not given), replicate column 2 of 3): 16967
Fluorescence competitive binding assay, OBP2 (raw fluorescence reading) (SfurOBP2; ligand concentration 10 (unit not given), replicate column 3 of 3): 17417
Fluorescence competitive binding assay, OBP2 (raw fluorescence reading) (SfurOBP2; ligand concentration 12 (unit not given), replicate column 1 of 3): 14659
Fluorescence competitive binding assay, OBP2 (raw fluorescence reading) (SfurOBP2; ligand concentration 12 (unit not given), replicate column 2 of 3): 16003
Fluorescence competitive binding assay, OBP2 (raw fluorescence reading) (SfurOBP2; ligand concentration 12 (unit not given), replicate column 3 of 3): 15331
Fluorescence competitive binding assay, OBP2 (raw fluorescence reading) (SfurOBP2; ligand concentration 14 (unit not given), replicate column 1 of 3): 15808
Fluorescence competitive binding assay, OBP2 (raw fluorescence reading) (SfurOBP2; ligand concentration 14 (unit not given), replicate column 2 of 3): 14578
Fluorescence competitive binding assay, OBP2 (raw fluorescence reading) (SfurOBP2; ligand concentration 14 (unit not given), replicate column 3 of 3): 16066
Fluorescence competitive binding assay, OBP2 (raw fluorescence reading) (SfurOBP2; ligand concentration 16 (unit not given), replicate column 1 of 3): 13829
Fluorescence competitive binding assay, OBP2 (raw fluorescence reading) (SfurOBP2; ligand concentration 16 (unit not given), replicate column 2 of 3): 13659
Fluorescence competitive binding assay, OBP2 (raw fluorescence reading) (SfurOBP2; ligand concentration 16 (unit not given), replicate column 3 of 3): 13740
Fluorescence competitive binding assay, OBP2 (raw fluorescence reading) (SfurOBP2; ligand concentration 18 (unit not given), replicate column 1 of 3): 13696
Fluorescence competitive binding assay, OBP2 (raw fluorescence reading) (SfurOBP2; ligand concentration 18 (unit not given), replicate column 2 of 3): 13929
Fluorescence competitive binding assay, OBP2 (raw fluorescence reading) (SfurOBP2; ligand concentration 18 (unit not given), replicate column 3 of 3): 14161
Fluorescence competitive binding assay, OBP2 (raw fluorescence reading) (SfurOBP2; ligand concentration 20 (unit not given), replicate column 1 of 3): 14205
Fluorescence competitive binding assay, OBP2 (raw fluorescence reading) (SfurOBP2; ligand concentration 20 (unit not given), replicate column 2 of 3): 14645
Fluorescence competitive binding assay, OBP2 (raw fluorescence reading) (SfurOBP2; ligand concentration 20 (unit not given), replicate column 3 of 3): 13761
IC50 (SfurOBP1): > 20 µM
Fluorescence competitive binding assay, fluorescence intensity (SfurOBP1; ligand concentration 2 (μM)): 5064 and 4951 and 5158
Fluorescence competitive binding assay, fluorescence intensity (SfurOBP1; ligand concentration 4 (μM)): 5979 and 6427 and 5531
Fluorescence competitive binding assay, fluorescence intensity (SfurOBP1; ligand concentration 6 (μM)): 9023 and 8678 and 7700
Fluorescence competitive binding assay, fluorescence intensity (SfurOBP1; ligand concentration 8 (μM)): 8709 and 6440 and 6910
Fluorescence competitive binding assay, fluorescence intensity (SfurOBP1; ligand concentration 10 (μM)): 7708 and 6333 and 7083
Fluorescence competitive binding assay, fluorescence intensity (SfurOBP1; ligand concentration 12 (μM)): 5895 and 6787 and 5523
Fluorescence competitive binding assay, fluorescence intensity (SfurOBP1; ligand concentration 14 (μM)): 8915 and 6017 and 4981
Fluorescence competitive binding assay, fluorescence intensity (SfurOBP1; ligand concentration 16 (μM)): 7008 and 5157 and 5392
Fluorescence competitive binding assay, fluorescence intensity (SfurOBP1; ligand concentration 18 (μM)): 7131 and 8076 and 6232
Fluorescence competitive binding assay, fluorescence intensity (SfurOBP1; ligand concentration 20 (μM)): 6422 and 6546 and 6873
IC50 (SfurOBP3): > 20 µM
Fluorescence competitive binding assay, fluorescence intensity (SfurOBP3; ligand concentration 2): 65046 and 56813 and 65508
Fluorescence competitive binding assay, fluorescence intensity (SfurOBP3; ligand concentration 4): 67380 and 59779 and 65465
Fluorescence competitive binding assay, fluorescence intensity (SfurOBP3; ligand concentration 6): 60647 and 61139 and 65169
Fluorescence competitive binding assay, fluorescence intensity (SfurOBP3; ligand concentration 8): 62761 and 59088 and 65223
Fluorescence competitive binding assay, fluorescence intensity (SfurOBP3; ligand concentration 10): 58066 and 60267 and 58488
Fluorescence competitive binding assay, fluorescence intensity (SfurOBP3; ligand concentration 12): 53979 and 46844 and 52174
Fluorescence competitive binding assay, fluorescence intensity (SfurOBP3; ligand concentration 14): 52567 and 46884 and 49119
Fluorescence competitive binding assay, fluorescence intensity (SfurOBP3; ligand concentration 16): 43090 and 45767 and 42573
Fluorescence competitive binding assay, fluorescence intensity (SfurOBP3; ligand concentration 18): 48410 and 52387 and 52599
Fluorescence competitive binding assay, fluorescence intensity (SfurOBP3; ligand concentration 20): 47608 and 41929 and 45047
